Publication PMC7707092, “Discovery and characterization of ORM‐11372, a novel inhibitor of the sodium‐calcium exchanger with positive inotropic activity” (British Journal of Pharmacology, 2020)
In brackets after ≈: the same amount, converted by molar mass. Where two headings read alike, the source gives them in different places.

Columns and labels:
hNCX1 = hNCX1 (Homo sapiens, UniProt P32418); experiment: Confirmatory fluorescence assay for hNCX1 inhibition (forward mode, HEK293 cells, Charles River); format: cell-based; conditions: HEK293, forward mode
Method: A confirmatory hNCX1 inhibition assay was performed in Charles River Laboratories, Cleveland. Briefly, HEK293 cells stably expressing hNCX1 were plated in 384‐well black wall, clear‐bottom microtitre plates and the next day loaded with Fluo‐8 for 30 min at 37°C. A plate was inserted into a FLIPR^TETRA, and a baseline was recorded during a preincubation period where test compound or vehicle in a Na^+‐free HB‐PS containing thapsigargin (6 μM) and […] (30 μM) was added to each well for ~5 min. Next, the NCX1 stimulation period was recorded in which Na^+‐containing HB‐PS (with 2‐μM thapsigargin and 10‐μM FCCP) was added. The experiments were performed at room temperature. The kinetic data generated were reduced for each well to maximum relative fluorescence units (RFU) minus minimum RFU after subtracting bias based on the first sample. The mean of the max–min RFU values during the stimulation period for the 3–4 replicates at each concentration on a plate was then plotted versus concentration and fitted to a Hill equation.

L‐type calcium channel = L‐type calcium channel inhibition, fluorescence assay in IMR‐32 cells; format: cell-based, human; conditions: KCl depolarization, n=4 assays, read-out: L‐type Ca^2+ IC50
Method: CHO cells stably expressing either hERG1a (KV11.1) channels (KCNH2; RRID:CVCL_H512) or human 5‐HT2B receptors were cultured at 37°C in a 5% CO2/95% air atmosphere in the Ham's Nutrient Mixture F‐12 (HAM F‐12) medium supplemented with 10% FBS (heat inactivated), 100 μg·ml^−1 of hygromycin B (Invitrogen), and 100 μg·ml^−1 of geneticin or 100 IU·ml^−1 of penicillin and 100 IU·ml^−1 of streptomycin, 25‐mM HEPES, 500 μg·ml^−1 of geneticin, and 250 μg·ml^−1 of Zeocin®. Adhered cells were detached using either Detachin® solution or trypsin and replated twice a week. HEK 293 (RRID:CVCL_0045) and IMR‐32 cells (CCL‐127; RRID:CVCL_0346) were cultured similarly but maintained instead in DMEM, supplemented with 10% FBS (heat inactivated), 100 IU·ml^−1 of penicillin and 100 IU·ml^−1 of streptomycin, and 25‐mM HEPES, and in the case of the IMR‐32 cell line, with minimum essential medium (MEM) non‐essential amino acids. IMR‐32 cells are derived from a human neuroblastoma and endogenously express L‐type (CaV1.x) calcium channel (Sher, Gotti, Pandiella, Madeddu, & Clementi, 1988).
Undifferentiated IMR‐32 cells were harvested, centrifuged, and resuspended in a probenecid‐Ringer solution consisting (in mM) 150 NaCl, 3 KCl, 1.2 MgCl2, 1 CaCl2, 20 HEPES, 5 glucose and 2.5 probenecid (pH 7.4 adjusted with NaOH, osmolarity 320–324 mOsm). We added 0.04% Pluronic F‐127 and Fluo‐4 to this solution, and after incubating the cells for 30 min at room temperature, these additives were removed from the probenecid‐Ringer solution by centrifugation and resuspension. The cell suspension was pipetted (250,000 cells in 75 μl per well) into a 96‐well plate, into which the test compound (75 μl per well at […] the final concentration; five concentrations with eight replicates) had already been added. The plate was centrifuged once (5 min, at 287 x g) to ensure that the cells were moved to the bottom of the wells. FLEXstation was then used to measure the increase in intracellular calcium at 37°C, following depolarization, which was induced by the addition (50 μl per well) of a KCl‐Ringer solution containing (in mM) 200 KCl, 20 CaCl2, 1.2 MgCl2, 20 HEPES and 2.5 probenecid respectively (pH adjusted to 7.4 with KOH, with an osmolarity of 320–324 mOsm).

hERG = hERG (Homo sapiens, UniProt Q12809); experiment: hERG IC50 of Table 1 / Table S2 (method not assigned); format: cell-based; conditions: n=4 assays
Sequence of hERG (Q12809 whole entry): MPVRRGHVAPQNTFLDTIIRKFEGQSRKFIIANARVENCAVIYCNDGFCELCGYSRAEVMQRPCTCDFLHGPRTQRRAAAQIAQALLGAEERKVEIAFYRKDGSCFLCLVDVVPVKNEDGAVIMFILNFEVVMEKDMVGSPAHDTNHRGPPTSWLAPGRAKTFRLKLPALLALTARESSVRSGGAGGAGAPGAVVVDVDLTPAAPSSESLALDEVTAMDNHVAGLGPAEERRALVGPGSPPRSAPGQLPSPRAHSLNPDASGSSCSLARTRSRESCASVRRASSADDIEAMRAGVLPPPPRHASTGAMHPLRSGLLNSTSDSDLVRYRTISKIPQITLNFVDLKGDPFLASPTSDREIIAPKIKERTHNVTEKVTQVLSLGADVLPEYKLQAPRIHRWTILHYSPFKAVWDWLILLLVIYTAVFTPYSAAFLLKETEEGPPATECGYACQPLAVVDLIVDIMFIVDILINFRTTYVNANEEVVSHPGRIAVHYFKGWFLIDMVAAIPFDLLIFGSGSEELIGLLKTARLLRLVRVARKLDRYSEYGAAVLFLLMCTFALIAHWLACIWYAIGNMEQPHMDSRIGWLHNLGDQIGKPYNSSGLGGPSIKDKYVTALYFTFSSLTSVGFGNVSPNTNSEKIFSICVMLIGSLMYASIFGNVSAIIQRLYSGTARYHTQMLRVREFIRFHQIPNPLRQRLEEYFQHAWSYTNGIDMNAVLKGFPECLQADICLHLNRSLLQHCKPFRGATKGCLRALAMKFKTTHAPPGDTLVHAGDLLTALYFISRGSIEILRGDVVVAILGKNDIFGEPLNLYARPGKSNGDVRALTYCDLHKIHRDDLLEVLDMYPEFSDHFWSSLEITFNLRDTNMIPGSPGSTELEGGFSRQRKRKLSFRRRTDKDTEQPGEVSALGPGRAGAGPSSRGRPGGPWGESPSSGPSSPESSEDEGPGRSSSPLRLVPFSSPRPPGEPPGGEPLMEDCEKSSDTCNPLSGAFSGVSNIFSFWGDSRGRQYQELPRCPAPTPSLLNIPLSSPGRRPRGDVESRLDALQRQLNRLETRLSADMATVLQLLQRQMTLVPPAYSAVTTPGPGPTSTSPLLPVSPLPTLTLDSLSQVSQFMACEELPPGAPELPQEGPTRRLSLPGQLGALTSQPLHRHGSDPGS

Solubility = format: physicochemical
MAO A = target: T1, MAO A (Homo sapiens, UniProt P21397); experiment: MAO A inhibition (Table S2); format: biochemical
T1 sequence (P21397 1-527): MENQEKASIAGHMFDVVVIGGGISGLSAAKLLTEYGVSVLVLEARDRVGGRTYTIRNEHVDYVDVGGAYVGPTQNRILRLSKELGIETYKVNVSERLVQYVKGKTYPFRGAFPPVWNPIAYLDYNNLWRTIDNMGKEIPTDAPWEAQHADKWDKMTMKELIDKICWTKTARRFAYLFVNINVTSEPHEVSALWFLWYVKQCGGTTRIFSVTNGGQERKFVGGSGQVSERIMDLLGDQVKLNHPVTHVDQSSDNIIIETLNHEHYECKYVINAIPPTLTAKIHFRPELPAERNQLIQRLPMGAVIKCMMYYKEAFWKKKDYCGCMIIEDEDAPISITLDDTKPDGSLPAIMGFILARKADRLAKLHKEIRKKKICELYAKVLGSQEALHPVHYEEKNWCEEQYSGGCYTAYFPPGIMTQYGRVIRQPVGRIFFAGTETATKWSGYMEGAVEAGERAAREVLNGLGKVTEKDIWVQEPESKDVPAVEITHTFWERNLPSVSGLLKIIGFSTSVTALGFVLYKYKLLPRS

MAO B = target: T2, MAO B (Homo sapiens, UniProt P27338); experiment: MAO B inhibition (Table S2); format: biochemical
T2 sequence (P27338 1-520): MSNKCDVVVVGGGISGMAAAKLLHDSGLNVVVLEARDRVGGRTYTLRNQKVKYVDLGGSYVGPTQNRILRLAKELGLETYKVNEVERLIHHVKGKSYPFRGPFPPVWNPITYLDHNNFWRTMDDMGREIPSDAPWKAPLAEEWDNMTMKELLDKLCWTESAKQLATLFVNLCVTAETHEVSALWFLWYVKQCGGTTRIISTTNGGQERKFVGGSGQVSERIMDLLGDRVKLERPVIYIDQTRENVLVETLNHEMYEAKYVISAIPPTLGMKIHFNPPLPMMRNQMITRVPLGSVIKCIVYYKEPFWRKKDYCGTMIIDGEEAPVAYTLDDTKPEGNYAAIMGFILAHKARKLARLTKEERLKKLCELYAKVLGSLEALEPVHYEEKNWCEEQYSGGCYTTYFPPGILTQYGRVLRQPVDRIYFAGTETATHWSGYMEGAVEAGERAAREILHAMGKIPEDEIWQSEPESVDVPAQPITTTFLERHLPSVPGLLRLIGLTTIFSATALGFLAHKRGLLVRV

[1] = Table S2, read-out: hNCX1-HEK IC50

IC50 (L‐type calcium channel) [µM] | IC50 (hNCX1; [1]) [µM] | solubility (Solubility; pH 7.4 phosphate buffer) | Solubility class (Solubility; pH 7.4 phosphate buffer, listed as SEA 0400) | IC50 (MAO A) [µM] | IC50 (MAO B) [µM] | MAO A inhibition (MAO A; 10 μM) [%] | MAO B inhibition (MAO B; 10 μM) [%] | SMILES | IC50 (hNCX1; 0.3% DMSO, read-out: IC50 hNCX1 calcium efflux signal) [µM] | IC50 (hNCX1; 1% DMSO, read-out: IC50 hNCX1 calcium efflux signal) [µM] | IC50 (hERG) [µM] | solubility (Solubility; 5% glucose solution, saline or isotonic, 5% glucose used for in vivo dosing, read-out: Solubility in 5% glucose solution) [µg/mL] | solubility (Solubility; phosphate buffer, pH 7.4, aqueous buffer, pH 7.4 phosphate buffer, read-out: Solubility) [µg/mL] | solubility (Solubility; phosphate buffer, pH 7.4, aqueous buffer, pH 7.4 phosphate buffer, read-out: Solubility class) [µg/mL] | solubility (Solubility; saline, saline or isotonic, saline used for in vivo dosing, read-out: Solubility in saline) [µg/mL] | inhibition at 10 µM (MAO A; 10 μM) [%] | inhibition at 10 µM (MAO B; 10 μM) [%] | Solubility class (Solubility; pH 7.4 phosphate buffer)
3.4 | 2.21 | less than 10 μg·ml^−1 | Insoluble (insoluble less than 10 µg/ml) | 4.34 | 0.176 | – | – | CCOc1ccc(Oc2ccc(OCc3cc(F)ccc3F)cc2)c(N)c1 [SEA0400, reference compound] | – | – | 2.8 | – | – | – | – | – | – | insoluble
11.4 | 0.63 | – | – | – | – | 11 | 52 | O=C(CN1CCC(O)CC1)Nc1ccc(Oc2ccc3c(c2)CCC(c2ccccc2)O3)nc1 (stereo not drawn) [ORM-10962] | – | – | 3.4 | – | – | – | – | – | – | Moderate (moderate solubility between 10-100 µg/ml)

SMILES | IC50 (L‐type calcium channel) [µM] | IC50 (hNCX1; [1]) [µM] | solubility (Solubility; pH 7.4 phosphate buffer) | Solubility class (Solubility; pH 7.4 phosphate buffer, listed as SEA 0400) | IC50 (MAO A) [µM] | IC50 (MAO B) [µM] | MAO A inhibition (MAO A; 10 μM) [%] | MAO B inhibition (MAO B; 10 μM) [%] | IC50 (hNCX1; 0.3% DMSO, read-out: IC50 hNCX1 calcium efflux signal) [µM] | IC50 (hNCX1; 1% DMSO, read-out: IC50 hNCX1 calcium efflux signal) [µM] | IC50 (hERG) [µM] | solubility (Solubility; 5% glucose solution, saline or isotonic, 5% glucose used for in vivo dosing, read-out: Solubility in 5% glucose solution) [µg/mL] | solubility (Solubility; phosphate buffer, pH 7.4, aqueous buffer, pH 7.4 phosphate buffer, read-out: Solubility) [µg/mL] | solubility (Solubility; phosphate buffer, pH 7.4, aqueous buffer, pH 7.4 phosphate buffer, read-out: Solubility class) [µg/mL] | solubility (Solubility; saline, saline or isotonic, saline used for in vivo dosing, read-out: Solubility in saline) [µg/mL] | inhibition at 10 µM (MAO A; 10 μM) [%] | inhibition at 10 µM (MAO B; 10 μM) [%] | Solubility class (Solubility; pH 7.4 phosphate buffer)
Nc1cccc(-c2ccc(CNc3ccc(F)cc3)o2)c1 [ORM‐11372] | 6.1 | – | – | – | – | – | – | – | 0.142 | 0.164 | 10.6 | 5400 (≈ 19.1 mM) | 10 to 100 (≈ 0.0354 to 0.354 mM) | 10 to 100 (≈ 0.0354 to 0.354 mM) | 5300 (≈ 18.8 mM) | 29 | 77 | –
